The values below come from ChEMBL document CHEMBL1124304 (J Med Chem, 1988).

pKi: −log10 of the molar value. A value given as a limit tells only on which side of the number the result lay.

In general, EC25 refers to the concentration at which the effect reaches the 25% level. In general, pKi refers to −log10 of the Ki, conventionally taken in molar units. One may read the Ki as the dissociation constant of the complex between target and ligand, obtained from inhibition or displacement.

Test [1] is filed under the species Rattus norvegicus. Put plainly: (§1) Reduction of heart rate (A1 response) in isolated rat heart preparation. In kind it is functional.
For test [2], the species on record is Rattus norvegicus. Briefly: Enhancement of coronary flow (A2 response) in isolated rat heart preparation. In kind it is functional.
Test [3] deals with T1, Adenosine receptor A1 (Rattus norvegicus) (UniProt P25099).
T1 sequence (whole entry): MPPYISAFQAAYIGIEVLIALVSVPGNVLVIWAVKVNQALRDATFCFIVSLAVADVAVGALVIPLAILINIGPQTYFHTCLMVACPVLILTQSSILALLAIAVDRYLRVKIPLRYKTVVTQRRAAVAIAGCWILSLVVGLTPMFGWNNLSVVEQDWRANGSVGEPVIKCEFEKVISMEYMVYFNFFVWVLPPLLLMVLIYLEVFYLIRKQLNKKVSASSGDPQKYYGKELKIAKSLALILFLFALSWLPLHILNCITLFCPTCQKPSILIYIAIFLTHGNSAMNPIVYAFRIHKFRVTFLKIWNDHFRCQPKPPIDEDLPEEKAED
Described as §1. In kind it is functional, tissue-based.

The target of test [4] is T2, Adenosine A2 receptor (Rattus norvegicus) (UniProt P29276+P30543).
For another test, the target named is T3, Adenosine receptor A1 (Rattus norvegicus, UniProt P25099).
T3 sequence (P25099 whole entry): T1 sequence (whole entry)

The target in the next test is Adenosine A2 receptor (Rattus norvegicus, UniProt P29276+P30543).
For test [5], the target named is T2, Adenosine A2 receptor (Rattus norvegicus). The source holds these as a separate data set.

Regarding `CCNC(=O)[C@H]1O[C@@H](n2cnc3c(N)ncnc32)[C@H](O)[C@@H]1O` [NECA], the EC25 in the test filed under Rattus norvegicus [1] worked out at 0.021 µM; in the test filed under Rattus norvegicus [2] it was 0.0011 µM.
For `Nc1nc(Cl)nc2c1ncn2[C@@H]1O[C@H](CO)[C@@H](O)[C@H]1O`, the EC25 in test [3] turned out to be 0.17 µM; in test [4], 0.013 µM.
As to `OC[C@H]1OC(n2cnc3c(NCc4c5ccccc5cc5ccccc45)ncnc32)[C@H](O)[C@@H]1O` (stereo partly specified), the pKi at Adenosine receptor A1 is 5.05. The Ki on Adenosine A2 receptor worked out at 29 µM.
The compound `OC[C@H]1OC(n2cnc3c(NCCC4c5ccccc5-c5ccccc54)ncnc32)[C@H](O)[C@@H]1O` (stereo partly specified) had a pKi at Adenosine receptor A1 of 6.49. Besides, at Adenosine A2 receptor, the inhibitory constant (Ki) is 4.3 µM. The EC25 in test [3] was more than 3 µM; in test [5] it was 0.4 µM.
For the compound `Nc1nc(Nc2ccccc2)nc2c1ncn2[C@@H]1O[C@H](CO)[C@@H](O)[C@H]1O`, the EC25 was 7 µM in test [3] and 0.003 µM in test [4].
For the compound `OC[C@H]1OC(n2cnc3c(NCC4c5ccccc5Oc5ccccc54)ncnc32)[C@H](O)[C@@H]1O` (stereo partly specified), the pKi at Adenosine receptor A1 is 7.21. This compound came in with a Ki on Adenosine A2 receptor of 0.048 µM. The EC25 came to 1.2 µM in test [3] and 0.002 µM in test [5].
On to `OC[C@H]1O[C@@H](n2cnc3c(NCC4c5ccccc5-c5ccccc54)ncnc32)[C@H](O)[C@@H]1O`, for which the values for the EC25 in test [3] and in test [5] were 0.1 µM and 0.002 µM, respectively.
As for `OC[C@H]1OC(n2cnc3c(NCCc4cccc5ccccc45)ncnc32)[C@H](O)[C@@H]1O` (stereo partly specified), at Adenosine receptor A1, the pKi was 7.91. On Adenosine A2 receptor, this compound gave a Ki of 0.23 µM. The EC25 was determined as 0.11 µM in test [3] and 0.03 µM in test [5].
For `OC[C@H]1O[C@@H](n2cnc3c(NCc4cccc5ccccc45)ncnc32)[C@H](O)[C@@H]1O` the same measures were 7.62, 0.0091 µM, 0.4 µM and 0.0012 µM.
As to `OC[C@H]1O[C@@H](n2cnc3c(NCC(c4ccccc4)c4ccccc4)ncnc32)[C@H](O)[C@@H]1O`, the EC25 came to 0.09 µM in test [3] and 0.01 µM in test [4].
On the same counts, the results for `OC[C@H]1O[C@@H](n2cnc3c(NCc4ccccc4)ncnc32)[C@H](O)[C@@H]1O` are 2.3 µM and 0.035 µM.
For `C[C@H](Cc1ccccc1)Nc1ncnc2c1ncn2[C@@H]1O[C@H](CO)[C@@H](O)[C@H]1O` the same measures were 0.013 µM and 0.01 µM.
Regarding `OC[C@H]1OC(n2cnc3c(NCC4c5ccccc5CCc5ccccc54)ncnc32)[C@H](O)[C@@H]1O` (stereo partly specified), the pKi on Adenosine receptor A1 was 6.80. Besides, the Ki on Adenosine A2 receptor was 0.39 µM.
In the case of `OC[C@H]1O[C@@H](n2cnc3c(NC4CCCC4)ncnc32)[C@H](O)[C@@H]1O`, the figures for the EC25 in test [3] and in test [4] were 0.003 µM and more than 0.1 µM, respectively.
At Adenosine A2 receptor, `OC[C@H]1O[C@@H](n2cnc3c(NCCc4ccccc4)ncnc32)[C@H](O)[C@@H]1O` gave a pKi of 6.80. Also, the EC25 in test [3] turned out to be 0.3 µM; in test [4] it was 0.07 µM.
At Adenosine receptor A1, `OC[C@H]1OC(n2cnc3c(NC4c5ccccc5-c5ccccc54)ncnc32)[C@H](O)[C@@H]1O` (stereo partly specified) gave a pKi of 5.21. The Ki on Adenosine A2 receptor was 42 µM.
